Assay results as given in PubChem BioAssay (NCI).
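Assay format: 96-well plates, 48-hour exposure. TGI: concentration producing complete growth inhibition.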

Key:
Assay in all cases: NCI-60 cell line screen, 48 h
[1] = test system: 786-0 renal
[2] = test system: A549 NSCLC
[3] = test system: ACHN renal
[4] = test system: CAKI-1 renal
[5] = test system: CCRF-CEM leukemia
[6] = test system: COLO 205 colon
[7] = test system: DLD-1 colon
[8] = test system: DMS 114 small cell lung
[9] = test system: DMS 273 small cell lung
[10] = test system: EKVX NSCLC
[11] = test system: HCC-2998 colon
[12] = test system: HCT-116 colon
[13] = test system: HCT-15 colon
[14] = test system: HL-60(TB) leukemia
[15] = test system: HOP-18 NSCLC
[16] = test system: HOP-62 NSCLC
[17] = test system: HOP-92 NSCLC
[18] = test system: HT29 colon
[19] = test system: IGROV1 ovarian
[20] = test system: K-562 leukemia
[21] = test system: KM12 colon
[22] = test system: KM20L2 colon
[23] = test system: LOX IMVI melanoma
[24] = test system: LXFL 529 NSCLC
[25] = test system: M14 melanoma
[26] = test system: M19-MEL melanoma
[27] = test system: MALME-3M melanoma
[28] = test system: MOLT-4 leukemia
[29] = test system: NCI-H226 lung
[30] = test system: NCI-H23 lung
[31] = test system: NCI-H460 lung
[32] = test system: NCI-H522 lung
[33] = test system: OVCAR-3 ovarian
[34] = test system: OVCAR-4 ovarian
[35] = test system: OVCAR-5 ovarian
[36] = test system: OVCAR-8 ovarian
[37] = test system: RPMI-8226 leukemia
[38] = test system: RXF 393 renal
[39] = test system: RXF-631 renal
[40] = test system: SF-268 CNS
[41] = test system: SF-295 CNS
[42] = test system: SF-539 CNS
[43] = test system: SK-MEL-2 melanoma
[44] = test system: SK-MEL-28 melanoma
[45] = test system: SK-MEL-5 melanoma
[46] = test system: SK-OV-3 ovarian
[47] = test system: SN12C renal
[48] = test system: SNB-19 CNS
[49] = test system: SNB-75 CNS
[50] = test system: SNB-78 CNS
[51] = test system: SR leukemia
[52] = test system: SW-620 colon
[53] = test system: TK-10 renal
[54] = test system: U251 CNS
[55] = test system: UACC-257 melanoma
[56] = test system: UACC-62 melanoma
[57] = test system: UO-31 renal
[58] = test system: XF 498 CNS

Question: How did the TGI [1] turn out when COc1cc2c(cc1O)C1C(O)C(O)C=C3CCN(C2)C31 (stereo not drawn) was run?
Answer: 11.9 µM

Question: What about the TGI [2] of the same compound?
Answer: 10.5 µM

Question: What about the TGI [3] of the same compound?
Answer: 7.87 µM

Question: What about the TGI [4] of the same compound?
Answer: 10.1 µM

Question: What about the TGI [5] of the same compound?
Answer: 72.6 µM

Question: What about the TGI [6] of the same compound?
Answer: 3.14 µM

Question: And the TGI [7]?
Answer: 14.2 µM

Question: And the TGI [8]?
Answer: 4.33 µM

Question: What about the TGI [9] of the same compound?
Answer: 8.24 µM

Question: What about the TGI [10] of the same compound?
Answer: 14.8 µM

Question: And the TGI [11]?
Answer: 8.44 µM

Question: And the TGI [12]?
Answer: 2250 nM

Question: And the TGI [13]?
Answer: 25.2 µM

Question: And the TGI [14]?
Answer: 7.53 µM

Question: What about the TGI [15] of the same compound?
Answer: 8.19 µM

Question: And the TGI [16]?
Answer: 10.9 µM

Question: And the TGI [17]?
Answer: 5.92 µM

Question: And the TGI [18]?
Answer: 18.9 µM

Question: What about the TGI [19] of the same compound?
Answer: 13.6 µM

Question: And the TGI [20]?
Answer: > 100 µM

Question: What about the TGI [21] of the same compound?
Answer: 11 µM

Question: What about the TGI [22] of the same compound?
Answer: 18.3 µM

Question: What about the TGI [23] of the same compound?
Answer: 8.19 µM

Question: And the TGI [24]?
Answer: 34.9 µM

Question: And the TGI [25]?
Answer: 4.46 µM

Question: What about the TGI [26] of the same compound?
Answer: 8.84 µM

Question: And the TGI [27]?
Answer: 3.86 µM

Question: What about the TGI [28] of the same compound?
Answer: 12.2 µM

Question: And the TGI [29]?
Answer: 7.07 µM

Question: And the TGI [30]?
Answer: 6.39 µM

Question: And the TGI [31]?
Answer: 10.1 µM

Question: And the TGI [32]?
Answer: 4.29 µM

Question: And the TGI [33]?
Answer: 8.12 µM

Question: What about the TGI [34] of the same compound?
Answer: 4.84 µM

Question: What about the TGI [35] of the same compound?
Answer: 24.6 µM

Question: And the TGI [36]?
Answer: 9.14 µM

Question: And the TGI [37]?
Answer: 11.7 µM

Question: What about the TGI [38] of the same compound?
Answer: 5.42 µM

Question: And the TGI [39]?
Answer: 28.2 µM

Question: And the TGI [40]?
Answer: 10.5 µM

Question: And the TGI [41]?
Answer: 17.6 µM

Question: What about the TGI [42] of the same compound?
Answer: 4.68 µM

Question: What about the TGI [43] of the same compound?
Answer: 5.74 µM

Question: What about the TGI [44] of the same compound?
Answer: 13.9 µM

Question: And the TGI [45]?
Answer: 2950 nM

Question: And the TGI [46]?
Answer: 22.9 µM

Question: What about the TGI [47] of the same compound?
Answer: 14.6 µM

Question: And the TGI [48]?
Answer: 10.1 µM

Question: What about the TGI [49] of the same compound?
Answer: 9.69 µM

Question: What about the TGI [50] of the same compound?
Answer: 9.27 µM

Question: What about the TGI [51] of the same compound?
Answer: 5.67 µM

Question: What about the TGI [52] of the same compound?
Answer: 12.6 µM

Question: What about the TGI [53] of the same compound?
Answer: 11.7 µM

Question: And the TGI [54]?
Answer: 24.2 µM

Question: What about the TGI [55] of the same compound?
Answer: 12.2 µM

Question: And the TGI [56]?
Answer: 3.97 µM

Question: And the TGI [57]?
Answer: 9.04 µM

Question: What about the TGI [58] of the same compound?
Answer: 4.36 µM
